Results as given in patent US10865193B2, “Pyridone derivatives for the treatment of viral infections and further diseases” (JANSSEN SCIENCES IRELAND UNLIMITED COMPANY, priority 2013, dated 2020).

Key:
Assay type in all cases: cell-based
human TLR8 = molecular target: T1, human TLR8 (Homo sapiens, UniProt Q9NR97); test: TLR8 cellular reporter assay (HEK293, NFκB-luc); conditions: HEK293 transiently transfected with TLR8 and NFκB-luc; 6 hours incubation; lowest effective concentration
T1 construct: expressed in transfected cells; host or cells: HEK293 (transient transfection)
T1 sequence (Q9NR97 27-1041): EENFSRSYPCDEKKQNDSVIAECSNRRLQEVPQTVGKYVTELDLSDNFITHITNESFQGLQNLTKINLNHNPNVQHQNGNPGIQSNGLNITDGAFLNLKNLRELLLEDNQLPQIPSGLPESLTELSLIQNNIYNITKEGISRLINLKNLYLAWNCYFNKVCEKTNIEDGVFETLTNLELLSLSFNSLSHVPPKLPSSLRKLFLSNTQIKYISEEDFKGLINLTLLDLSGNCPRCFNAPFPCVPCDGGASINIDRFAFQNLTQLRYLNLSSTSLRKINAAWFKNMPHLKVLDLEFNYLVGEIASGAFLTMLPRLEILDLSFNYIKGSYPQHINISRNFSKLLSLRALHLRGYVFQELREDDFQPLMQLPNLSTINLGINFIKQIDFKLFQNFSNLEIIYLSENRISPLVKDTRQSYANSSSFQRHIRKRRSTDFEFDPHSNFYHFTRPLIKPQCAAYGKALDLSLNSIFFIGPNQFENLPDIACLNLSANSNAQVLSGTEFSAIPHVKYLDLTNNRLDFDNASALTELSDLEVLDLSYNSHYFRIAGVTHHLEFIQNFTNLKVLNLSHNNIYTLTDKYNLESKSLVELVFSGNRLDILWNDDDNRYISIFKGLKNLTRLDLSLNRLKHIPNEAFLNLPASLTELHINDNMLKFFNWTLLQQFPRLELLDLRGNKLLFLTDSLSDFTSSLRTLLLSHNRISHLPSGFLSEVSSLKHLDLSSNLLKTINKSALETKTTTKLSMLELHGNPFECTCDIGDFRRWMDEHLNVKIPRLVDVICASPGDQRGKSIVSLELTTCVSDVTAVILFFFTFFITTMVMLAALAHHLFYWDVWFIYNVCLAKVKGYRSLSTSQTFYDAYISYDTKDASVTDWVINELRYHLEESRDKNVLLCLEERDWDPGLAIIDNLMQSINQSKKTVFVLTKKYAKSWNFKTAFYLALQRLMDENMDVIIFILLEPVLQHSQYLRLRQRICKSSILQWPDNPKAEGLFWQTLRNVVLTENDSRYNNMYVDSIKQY
Protocol: (§1) The ability of compounds to activate human TLR7 and/or TLR8 was assessed in a cellular reporter assay using HEK293 cells transiently transfected with a TLR7 or TLR8 expression vector and NFκB-luc reporter construct.
(§2) Briefly, HEK293 cells were grown in culture medium (DMEM supplemented with 10% FCS and 2 mM Glutamine). For transfection of cells in 15 cm dishes, cells were detached with Trypsin-EDTA, transfected with a mix of CMV-TLR7 or TLR8 plasmid (1700 ng), NFκB-luc plasmid (850 ng) and a transfection reagent and incubated for 48 h at 37° C. in a humidified 5% CO2 atmosphere. Transfected cells were then washed in PBS, detached with Trypsin-EDTA and resuspended in medium to a density of 1.25×10^5 cells/mL. Forty microliters of cells were then dispensed into each well in 384-well plates, where 200 nL of compound in 100% DMSO was already present. Following 6 hours incubation at 37° C., 5% CO2, the luciferase activity was determined by adding 15 μL of Steady Lite Plus substrate (Perkin Elmer) to each well and readout performed on a ViewLux ultraHTS microplate imager (Perkin Elmer). Dose response curves were generated from measurements performed in quadruplicates. Lowest effective concentrations (LEC) values, defined as the concentration that induces an effect which is at least two fold above the standard deviation of the assay, were determined for each compound.

[1] = system: interferon-stimulated responsive elements (ISRE); test: Activation of ISRE promoter elements by conditioned media from PBMC (HEK-ISREluc); conditions: Homo sapiens; PBMC overnight incubation, supernatant on HEK-ISREluc cells 24 hours; lowest effective concentration; read-out: HEK-ISRE luc (LEC)
Protocol: The potential of compounds to induce IFN-I was also evaluated by measuring the activation of interferon-stimulated responsive elements (ISRE) by conditioned media from PBMC. The ISRE element of sequence GAAACTGAAACT (SEQ ID NO: 1) is highly responsive to the STAT1-STAT2-1RF9 transcription factor, activated upon binding of IFN-I to their receptor IFNAR (Clontech, PT3372-5W). The plasmid pISRE-Luc from Clontech (ref. 631913) contains 5 copies of this ISRE element, followed by the firefly luciferase ORF. A HEK293 cell line stably transfected with pISRE-Luc (HEK-ISREluc) was established to profile the conditioned PBMC cell culture media.
Briefly, PBMCs were prepared from buffy coats of at least two donors using a standard Ficoll centrifugation protocol. Isolated PBMCs were resuspended in RPMI medium supplemented with 10% human AB serum and 2×10^5 cells/well were dispensed into 384-well plates containing compounds (70 μL total volume). After overnight incubation, 10 μL of supernatant was transferred to 384-well plates containing 5×10^3 HEK-ISREluc cells/well in 30 μL (plated the day before). Following 24 hours of incubation, activation of the ISRE elements was measured by assaying luciferase activity using 40 μL/well Steady Lite Plus substrate (Perkin Elmer) and measured with ViewLux ultraHTS microplate imager (Perkin Elmer). The stimulating activity of each compound on the HEK-ISREluc cells was reported as LEC value, defined as the compound concentration applied to the PBMCs resulting in a luciferase activity at least two fold above the standard deviation of the assay. The LEC in turn indicates the degree of ISRE activation on transfer of a defined amount of PBMC culture medium. Recombinant interferon α-2a (Roferon-A) was used as a standard control compound.

human TLR7 = molecular target: T2, human TLR7 (Homo sapiens, UniProt Q9NYK1); test: TLR7 cellular reporter assay (HEK293, NFκB-luc); conditions: HEK293 transiently transfected with TLR7 and NFκB-luc; 6 hours incubation; lowest effective concentration
T2 construct: expressed in transfected cells; host or cells: HEK293 (transient transfection)
T2 sequence (Q9NYK1 27-1049): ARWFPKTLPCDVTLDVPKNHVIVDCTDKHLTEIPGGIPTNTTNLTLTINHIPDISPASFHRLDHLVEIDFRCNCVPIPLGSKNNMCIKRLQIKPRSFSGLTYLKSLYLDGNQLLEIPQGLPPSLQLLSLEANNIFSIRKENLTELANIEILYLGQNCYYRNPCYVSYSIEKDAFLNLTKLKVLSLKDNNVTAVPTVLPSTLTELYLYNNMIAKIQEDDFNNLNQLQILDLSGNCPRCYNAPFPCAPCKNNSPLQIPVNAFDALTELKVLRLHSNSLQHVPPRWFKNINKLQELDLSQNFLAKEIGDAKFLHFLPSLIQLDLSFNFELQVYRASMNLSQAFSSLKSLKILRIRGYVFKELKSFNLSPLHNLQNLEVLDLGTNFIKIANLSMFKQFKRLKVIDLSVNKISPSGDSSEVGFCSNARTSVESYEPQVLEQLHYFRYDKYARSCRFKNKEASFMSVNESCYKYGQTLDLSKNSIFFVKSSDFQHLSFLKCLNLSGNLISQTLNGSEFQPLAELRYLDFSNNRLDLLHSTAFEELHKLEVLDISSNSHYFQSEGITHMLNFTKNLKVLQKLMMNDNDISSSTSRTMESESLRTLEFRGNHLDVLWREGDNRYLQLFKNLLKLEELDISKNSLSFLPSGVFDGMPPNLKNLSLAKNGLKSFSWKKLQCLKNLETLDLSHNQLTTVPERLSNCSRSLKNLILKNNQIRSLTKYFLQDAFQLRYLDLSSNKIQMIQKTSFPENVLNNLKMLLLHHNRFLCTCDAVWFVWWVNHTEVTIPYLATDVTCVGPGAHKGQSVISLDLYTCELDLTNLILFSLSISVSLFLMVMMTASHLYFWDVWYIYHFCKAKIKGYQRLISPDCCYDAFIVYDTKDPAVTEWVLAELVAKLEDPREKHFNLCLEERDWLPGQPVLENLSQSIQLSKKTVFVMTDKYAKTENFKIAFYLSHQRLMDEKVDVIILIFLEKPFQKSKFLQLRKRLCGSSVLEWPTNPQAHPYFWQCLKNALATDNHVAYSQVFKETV
Protocol: as §1, §2

Row | Human TLR 8 (LEC) (human TLR8) [µM] | Human TLR 7 (LEC) (human TLR7) [µM] | Compound | minimal effective concentration [1] [µM]
1 | 14.6 | 1.3 | CCCC(C)Nc1nc(N)ncc1Cn1ccccc1=O (stereo not drawn) [Compound 11] | 0.3
2 | 2.7 | 0.9 | CCCCNc1nc(N)ncc1Cn1c(=O)ccc2ccccc21 [Compound 5] | 0.04
3 | 7.3 | 1.8 | CCCCNc1nc(N)ncc1Cn1ccccc1=O [Compound 1] | 0.7
4 | 6.9 | 1.2 | CCCCNc1nc(N)ncc1Cn1cccc(F)c1=O [Compound 6] | 0.5
5 | >25 | 1.5 | CCCCCNc1nc(N)ncc1Cn1ccccc1=O [Compound 8] | 0.6
6 | 10.3 | 0.8 | CCCCNc1nc(N)ncc1Cn1cc(C)ccc1=O [Compound 3] | 0.3
7 | 2.2 | 0.5 | CCCCNc1nc(N)ncc1Cn1ccc(C)cc1=O [Compound 4] | 0.5
8 | 16 | 1.0 | CCCCC(C)Nc1nc(N)ncc1Cn1ccccc1=O (stereo not drawn) [Compound 10] | 0.3
9 | >25 | 7.3 | CCCCCCNc1nc(N)ncc1Cn1ccccc1=O [Compound 9] | 3
10 | 6.8 | 0.5 | CCCCNc1nc(N)ncc1Cn1ccc(C(F)(F)F)cc1=O [Compound 7] | 0.5
11 | 2.1 | 1.1 | CCCCNc1nc(N)ncc1Cn1c(C)cccc1=O [Compound 2] | 0.8
